Assay results from PubChem BioAssay AID330 (DTP/NCI, 2004).
Where “and” joins values, the source holds several entries; their conditions need not be identical. Identical values can stand only once. Inconclusive results and toxic doses are left out. Rule for the calls: active = survival T/C of 150% or more; inactive = T/C below 125% in these data.

Tested on: P388 leukemia ip, CD2F1 mice, survival T/C
Test: NCI In Vivo Anticancer Drug Screen. Data for tumor model P388 Leukemia (intraperitoneal) in CD2F1 (CDF1) mice
Details: endpoint: median survival time, higher = longer survival
In short: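 Mice carrying the transplanted tumor received test compound or vehicle. Survival was recorded in each group, and the value is the treated-group measurement divided by that of the vehicle-treated control group.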

[1] = dose: 100.0 mg/kg/injection, schedule: Q01DX009 (ip), vehicle: saline with Tween-80
[2] = dose: 200.0 mg/kg/injection, schedule: Q01DX009 (ip), vehicle: saline with Tween-80
[3] = dose: 100.0 mg/kg/injection, schedule: Q04DX003 (ip), vehicle: Klucel (hydroxypropylcellulose) (HPC)
[4] = dose: 200.0 mg/kg/injection, schedule: Q04DX003 (ip), vehicle: Klucel (hydroxypropylcellulose) (HPC)
[5] = dose: 400.0 mg/kg/injection, schedule: Q04DX003 (ip), vehicle: Klucel (hydroxypropylcellulose) (HPC)
[6] = dose: 50.0 mg/kg/injection, schedule: Q01DX005 (ip), vehicle: Klucel (hydroxypropylcellulose) (HPC)
[7] = dose: 100.0 mg/kg/injection, schedule: Q01DX005 (ip), vehicle: Klucel (hydroxypropylcellulose) (HPC)
[8] = dose: 200.0 mg/kg/injection, schedule: Q01DX005 (ip), vehicle: Klucel (hydroxypropylcellulose) (HPC)
[9] = dose: 60.0 mg/kg/injection, schedule: Q01DX005 (ip), vehicle: Klucel (hydroxypropylcellulose) (HPC)
[10] = dose: 120.0 mg/kg/injection, schedule: Q01DX005 (ip), vehicle: Klucel (hydroxypropylcellulose) (HPC)
[11] = dose: 240.0 mg/kg/injection, schedule: Q01DX005 (ip), vehicle: Klucel (hydroxypropylcellulose) (HPC)

Measured: T/C

O=C(NC1CC1)c1ccccc1
inactive: dose: 25.0 mg/kg/injection, schedule: Q01DX009 (ip), vehicle: saline with Tween-80 96 % of control | dose: 50.0 mg/kg/injection, schedule: Q01DX009 (ip), vehicle: saline with Tween-80 100 % of control | [1] 87 % of control | [2] 87 % of control

c1ccc(C2=NN(c3ccccc3)C3C4CCC(C4)C23)cc1 (stereo unspecified)
inactive: [3] 93 % of control | [4] 93 % of control | [5] 91 % of control

Nc1ccc(S(N)(=O)=O)cc1
inactive: dose: 12.5 mg/kg/injection, schedule: Q01DX009 (ip), vehicle: saline with Tween-80 105 % of control and 112 % of control | dose: 150.0 mg/kg/injection, schedule: Q01DX009 (ip), vehicle: saline with Tween-80 108 % of control and 97 % of control | [2] 101 % of control and 89 % of control | dose: 400.0 mg/kg/injection, schedule: Q01DX009 (ip), vehicle: saline with Tween-80 98 % of control and 100 % of control

CCOC(=O)CCCCCNC(=S)N1c2c(nc(N)[nH]c2=O)NCC1CNc1ccc(C(=O)NC(CCC(=O)O)C(=O)O)cc1 (stereo unspecified)
inactive: dose: 100.0 mg/kg/injection, schedule: Q01DX001 (ip), vehicle: sodium bicarbonate 89 % of control | dose: 200.0 mg/kg/injection, schedule: Q01DX001 (ip), vehicle: sodium bicarbonate 90 % of control | dose: 400.0 mg/kg/injection, schedule: Q01DX001 (ip), vehicle: sodium bicarbonate 92 % of control

O=C1OCCOCCSCCOCCOC(=O)c2cccc1n2
inactive: [3] 101 % of control | [4] 102 % of control | [5] 100 % of control

Cn1c(=O)[nH]cc(F)c1=O
inactive: dose: 10.0 mg/kg/injection, schedule: Q01DX009 (ip), vehicle: saline 104 % of control | dose: 20.0 mg/kg/injection, schedule: Q01DX009 (ip), vehicle: saline 100 % of control | dose: 40.0 mg/kg/injection, schedule: Q01DX009 (ip), vehicle: saline 98 % of control

CC(C)(C)C1CN2CCO[Si](CC[Si](C)(C)C)(OCC2)O1 (stereo unspecified)
inactive: [6] 98 % of control | [7] 97 % of control | [8] 88 % of control

COc1cc2c(cc1O)C(=O)CCC(C(=O)O)=C2
inactive: [1] 92 % of control

COC1=CC23CCCN2CCc2cc4c(cc2C3C1O)OCO4 (stereo unspecified)
inactive: dose: 12.5 mg/kg/injection, schedule: Q01DX009 (ip), vehicle: water 103 % of control | dose: 25.0 mg/kg/injection, schedule: Q01DX009 (ip), vehicle: water 99 % of control | dose: 50.0 mg/kg/injection, schedule: Q01DX009 (ip), vehicle: water 104 % of control | [9] 101 % of control | dose: 100.0 mg/kg/injection, schedule: Q01DX009 (ip), vehicle: water 96 % of control | [10] 106 % of control | dose: 200.0 mg/kg/injection, schedule: Q01DX009 (ip), vehicle: water 99 % of control | [11] 101 % of control

COc1cc2c(c(NC(C)CCCN=C(N)NC(N)=NC(C)C)c1)NCCC2 (stereo unspecified)
inactive: dose: 3.12 mg/kg/injection, schedule: Q01DX005 (ip), vehicle: saline with Tween-80 103 % of control | dose: 6.25 mg/kg/injection, schedule: Q01DX005 (ip), vehicle: saline with Tween-80 106 % of control | dose: 12.5 mg/kg/injection, schedule: Q01DX005 (ip), vehicle: saline with Tween-80 106 % of control

COC1C(O)CC(OC2C(C)OC(Oc3cc(O)c4c(O)c5c(cc4c3)C[C@@H]([C@H](OC)C(=O)[C@@H](O)[C@@H](C)O)[C@H](OC3CC(OC4CC(OC6CC(C)(O)C(O)C(C)O6)C(O)C(C)O4)C(O)C(C)O3)C5=O)CC2OC(C)=O)OC1C (stereo partly specified)
inactive: dose: 37.5 mg/kg/injection, schedule: Q01DX009 (ip), vehicle: saline 107 % of control | dose: 75.0 mg/kg/injection, schedule: Q01DX009 (ip), vehicle: saline 111 % of control | dose: 150.0 mg/kg/injection, schedule: Q01DX009 (ip), vehicle: saline 98 % of control | dose: 300.0 mg/kg/injection, schedule: Q01DX009 (ip), vehicle: saline 107 % of control

O=C1CCCCCCCCCCC1C(O)(C(F)(F)F)C(F)(F)F (stereo unspecified)
inactive: dose: 100.0 mg/kg/injection, schedule: Q04DX003 (ip), vehicle: saline with Tween-80 100 % of control | dose: 200.0 mg/kg/injection, schedule: Q04DX003 (ip), vehicle: saline with Tween-80 90 % of control | dose: 400.0 mg/kg/injection, schedule: Q04DX003 (ip), vehicle: saline with Tween-80 100 % of control

CCOc1ccc(/C=N/NC(=O)c2ccccc2NC(=O)c2ccccc2Cl)cc1OC
inactive: dose: 30.0 mg/kg/injection, schedule: Q01DX005 (ip), vehicle: Klucel (hydroxypropylcellulose) (HPC) 101 % of control | [9] 101 % of control and 90 % of control | [10] 101 % of control | [11] 91 % of control

CCN(CC)CCNC(=O)CCC(=O)O
inactive: dose: 50.0 mg/kg/injection, schedule: Q01DX005 (ip), vehicle: saline 102 % of control | dose: 100.0 mg/kg/injection, schedule: Q01DX005 (ip), vehicle: saline 100 % of control | dose: 200.0 mg/kg/injection, schedule: Q01DX005 (ip), vehicle: saline 100 % of control

O=c1/c(=C/C=C/c2ccccc2)sc2nc3ccccc3n12
inactive: dose: 50.0 mg/kg/injection, schedule: Q01DX005 (ip), vehicle: saline with Tween-80 107 % of control | dose: 100.0 mg/kg/injection, schedule: Q01DX005 (ip), vehicle: saline with Tween-80 106 % of control | dose: 200.0 mg/kg/injection, schedule: Q01DX005 (ip), vehicle: saline with Tween-80 92 % of control

CCOC(=O)c1nc(C)[nH]c1C
inactive: dose: 50.0 mg/kg/injection, schedule: Q01DX009 (ip), vehicle: Klucel (hydroxypropylcellulose) (HPC) 100 % of control | dose: 100.0 mg/kg/injection, schedule: Q01DX009 (ip), vehicle: Klucel (hydroxypropylcellulose) (HPC) 95 % of control | dose: 200.0 mg/kg/injection, schedule: Q01DX009 (ip), vehicle: Klucel (hydroxypropylcellulose) (HPC) 100 % of control

O=C(O)CN(CCN(CC(=O)O)CC(=O)O)CC(=O)O.[Cd+2]
inactive: dose: 1.56 mg/kg/injection, schedule: Q01DX009 (ip), vehicle: saline 97 % of control | dose: 3.12 mg/kg/injection, schedule: Q01DX009 (ip), vehicle: saline 91 % of control | dose: 6.25 mg/kg/injection, schedule: Q01DX009 (ip), vehicle: saline 91 % of control and 94 % of control | dose: 12.5 mg/kg/injection, schedule: Q01DX009 (ip), vehicle: saline 92 % of control and 95 % of control | dose: 25.0 mg/kg/injection, schedule: Q01DX009 (ip), vehicle: saline 92 % of control and 97 % of control | dose: 50.0 mg/kg/injection, schedule: Q01DX009 (ip), vehicle: saline 88 % of control

COC(=O)C1C(O)CCC2CN3CCc4c([nH]c5cccc(OC)c45)C3CC21 (stereo unspecified)
inactive: dose: 25.0 mg/kg/injection, schedule: Q01DX005 (ip), vehicle: Klucel (hydroxypropylcellulose) (HPC) 104 % of control | [6] 105 % of control | [7] 104 % of control | [8] 101 % of control

O=C1CC2(CCCC2)CC(=O)N1c1ccc(O)c(CN2CCOCC2)c1
inactive: dose: 100.0 mg/kg/injection, schedule: Q04DX002 (ip), vehicle: Klucel (hydroxypropylcellulose) (HPC) 97 % of control | dose: 200.0 mg/kg/injection, schedule: Q04DX002 (ip), vehicle: Klucel (hydroxypropylcellulose) (HPC) 89 % of control | dose: 400.0 mg/kg/injection, schedule: Q04DX002 (ip), vehicle: Klucel (hydroxypropylcellulose) (HPC) 90 % of control

CCOC(=O)C#Cc1cccc(C#CC(=O)OCC)c1
inactive: dose: 50.0 mg/kg/injection, schedule: Q01DX001 (ip), vehicle: saline with Tween-80 98 % of control | dose: 100.0 mg/kg/injection, schedule: Q01DX001 (ip), vehicle: saline with Tween-80 99 % of control and 118 % of control | dose: 200.0 mg/kg/injection, schedule: Q01DX001 (ip), vehicle: saline with Tween-80 120 % of control
